Columns and labels:
[1] = xn = mol fraction of the nth substance listed; details: 298.15 K, 101.33 kPa, Liquid
[2] = excess molar enthalpy (molar enthalpy of mixing); xn = mol fraction of the nth substance listed; details: 298.15 K, 101.33 kPa, Liquid

CCCCC(=O)OCC [ethyl pentanoate] + ClCCCCCl
Details | excess molar enthalpy [kcal/mol] | mass density [kg/m3]
[1], x1 = 0.0426 | – | 1118.97
[1], x1 = 0.0881 | – | 1103.57
[1], x1 = 0.1345 | – | 1088.34
[1], x1 = 0.1844 | – | 1072.46
[1], x1 = 0.2407 | – | 1055.13
[1], x1 = 0.2932 | – | 1039.54
[1], x1 = 0.3462 | – | 1024.28
[1], x1 = 0.4021 | – | 1008.72
[1], x1 = 0.4541 | – | 994.67
[1], x1 = 0.5187 | – | 977.83
[1], x1 = 0.5829 | – | 961.7
[1], x1 = 0.6452 | – | 946.59
[1], x1 = 0.7045 | – | 932.66
[1], x1 = 0.7796 | – | 915.67
[1], x1 = 0.8521 | – | 899.89
[1], x1 = 0.925 | – | 884.57
[2], x2 = 0.0443 | -0.00368 | –
[2], x2 = 0.0938 | -0.00985 | –
[2], x2 = 0.1472 | -0.0156 | –
[2], x2 = 0.2021 | -0.0229 | –
[2], x2 = 0.2576 | -0.0317 | –
[2], x2 = 0.3103 | -0.04 | –
[2], x2 = 0.3615 | -0.0492 | –
[2], x2 = 0.4093 | -0.0553 | –
[2], x2 = 0.4542 | -0.0607 | –
[2], x2 = 0.4637 | -0.062 | –
[2], x2 = 0.5038 | -0.0642 | –
[2], x2 = 0.5509 | -0.0653 | –
[2], x2 = 0.6143 | -0.0639 | –
[2], x2 = 0.6866 | -0.0592 | –
[2], x2 = 0.7631 | -0.0504 | –
[2], x2 = 0.8429 | -0.0372 | –
[2], x2 = 0.9262 | -0.0202 | –

CCCCC(=O)OCC [ethyl pentanoate] + ClCCCCl
Details | excess molar enthalpy [kcal/mol] | mass density [kg/m3]
[1], x1 = 0.0395 | – | 1159.55
[1], x1 = 0.0785 | – | 1141.75
[1], x1 = 0.1207 | – | 1123.43
[1], x1 = 0.1642 | – | 1105.29
[1], x1 = 0.2098 | – | 1087.19
[1], x1 = 0.2576 | – | 1069.12
[1], x1 = 0.3081 | – | 1050.97
[1], x1 = 0.3623 | – | 1032.41
[1], x1 = 0.4179 | – | 1014.41
[1], x1 = 0.4804 | – | 995.25
[1], x1 = 0.538 | – | 978.58
[1], x1 = 0.6036 | – | 960.5
[1], x1 = 0.744 | – | 925.06
[1], x1 = 0.8249 | – | 906.38
[1], x1 = 0.9085 | – | 888.3
[2], x2 = 0.0493 | -0.00743 | –
[2], x2 = 0.0986 | -0.0147 | –
[2], x2 = 0.1536 | -0.0238 | –
[2], x2 = 0.2082 | -0.0333 | –
[2], x2 = 0.261 | -0.0426 | –
[2], x2 = 0.3126 | -0.052 | –
[2], x2 = 0.3627 | -0.061 | –
[2], x2 = 0.4084 | -0.066 | –
[2], x2 = 0.4405 | -0.0697 | –
[2], x2 = 0.4492 | -0.0707 | –
[2], x2 = 0.5044 | -0.0725 | –
[2], x2 = 0.5692 | -0.0725 | –
[2], x2 = 0.6438 | -0.0687 | –
[2], x2 = 0.7284 | -0.0593 | –
[2], x2 = 0.8181 | -0.0439 | –
[2], x2 = 0.9124 | -0.0246 | –

CCCCC(=O)OCC [ethyl pentanoate] + ClCCCl
Details | excess molar enthalpy [kcal/mol] | mass density [kg/m3]
[1], x1 = 0.0345 | – | 1220.93
[1], x1 = 0.0687 | – | 1198.23
[1], x1 = 0.1042 | – | 1176.06
[1], x1 = 0.1425 | – | 1153.66
[1], x1 = 0.1817 | – | 1132.12
[1], x1 = 0.2273 | – | 1108.84
[1], x1 = 0.2723 | – | 1087.35
[1], x1 = 0.324 | – | 1064.47
[1], x1 = 0.3767 | – | 1042.83
[1], x1 = 0.4332 | – | 1021.3
[1], x1 = 0.4956 | – | 999.37
[1], x1 = 0.5633 | – | 977.31
[1], x1 = 0.6342 | – | 956.13
[1], x1 = 0.7134 | – | 934.52
[1], x1 = 0.7992 | – | 912.89
[1], x1 = 0.894 | – | 893.96
[2], x2 = 0.0371 | -0.00712 | –
[2], x2 = 0.098 | -0.0147 | –
[2], x2 = 0.126 | -0.0245 | –
[2], x2 = 0.1732 | -0.0363 | –
[2], x2 = 0.2196 | -0.0475 | –
[2], x2 = 0.2666 | -0.0614 | –
[2], x2 = 0.3122 | -0.0744 | –
[2], x2 = 0.3542 | -0.0839 | –
[2], x2 = 0.4265 | -0.0924 | –
[2], x2 = 0.4641 | -0.0946 | –
[2], x2 = 0.5103 | -0.0954 | –
[2], x2 = 0.5638 | -0.0959 | –
[2], x2 = 0.626 | -0.0916 | –
[2], x2 = 0.7011 | -0.0817 | –
[2], x2 = 0.7962 | -0.0618 | –
[2], x2 = 0.896 | -0.0363 | –

From the NIST ThermoML archive (doi:10.1016/j.jct.2005.03.020)
